From patent US20120190687A1, “Pyrazinylpyrazoles” (Bayer CropScience Ag, priority 2009, published 2012) come the findings set out here.

The series in a line: logP by reversed-phase HPLC (EEC Directive 79/831 Annex V.A8). Type of series: physicochemical. An excerpt:
[table] The calibration is effected with unbranched alkan-2-ones (having 3 to 16 carbon atoms) with known log P values (log P values determined on the basis of the retention times by linear interpolation between two successive alkanones).

Where [1] appears, read: * LC-MS, acidic range, pH 2.7, 0.1% aqueous formic acid / acetonitrile.
The mark [2] stands for this setting: ** acidic range, pH 2.3, 0.1% aqueous phosphoric acid / acetonitrile.

For `Nc1c(-c2ccc(Cl)c(Cl)c2)c(C(F)(F)F)nn1-c1nccnc1Cl` [Ex. 1], the “log P” value is 4.02* under setting [1] and 3.99**; under setting [2]. In the case of `Nc1c(-c2ccc(Cl)cc2)c(C(F)(F)F)nn1-c1nccnc1Cl` [Ex. 7], the “log P” value under setting [1] is given as 3.59*. Regarding `Nc1c(-c2cc(Cl)cc(C(F)(F)F)c2)c(C(F)(F)F)nn1-c1nccnc1Cl` [Ex. 16], under setting [1], the “log P” value is 4.28*. Regarding `Nc1c(-c2cc(Cl)cc(C(F)(F)F)c2)c(C(F)(F)F)nn1-c1cncc(Cl)n1` [Ex. 19], the “log P” value under setting [1] was 5.26*. `Cc1cnc(C)c(-n2nc(C(F)(F)F)c(-c3cc(Cl)cc(C(F)(F)F)c3)c2N)n1` [Ex. 24]: the “log P” value under setting [1] was 4.56*. On to `CN(C)c1nccnc1-n1nc(C(F)(F)F)c(-c2cc(Cl)cc(C(F)(F)F)c2)c1N` [Ex. 25], for which the “log P” value under setting [1] is 4.28*. On to `C[S+]([O-])c1nccnc1-n1nc(C(F)(F)F)c(-c2cc(Cl)cc(C(F)(F)F)c2)c1N` (stereo not shown) [Ex. 29], for which the “log P” value under setting [1] is reported as 3.29*. As for `CS(=O)(=O)c1nccnc1-n1nc(C(F)(F)F)c(-c2cc(Cl)cc(C(F)(F)F)c2)c1N` [Ex. 30], the “log P” value under setting [1] was 3.54*.

For the compound `Nc1c(-c2cc(Cl)cc(C(F)(F)F)c2)c(C(F)(F)F)nn1-c1nccnc1-n1cccn1` [Ex. 31], under setting [1], the “log P” value is listed as 3.94*. Take `COc1nccnc1-n1nc(C(F)(F)F)c(-c2cc(Cl)cc(C(F)(F)F)c2)c1N(Cc1ccccc1)Cc1ccccc1` [Ex. 32]: under setting [1], the “log P” value is recorded as 6.67*. In the case of `CCOc1nccnc1-n1nc(C(F)(F)F)c(-c2cc(Cl)cc(C(F)(F)F)c2)c1N(Cc1ccccc1)Cc1ccccc1` [Ex. 34], under setting [1], the “log P” value was 7*.

On to `CCOc1nccnc1-n1nc(C(F)(F)F)c(-c2cc(Cl)cc(C(F)(F)F)c2)c1N(Cc1ccc(Cl)cc1)Cc1ccc(Cl)cc1` [Ex. 36], for which, under setting [2], the “log P” value is on record as 7.36**.

Consider `CCOc1nccnc1-n1nc(C(F)(F)F)c(-c2cc(Cl)cc(C(F)(F)F)c2)c1NCc1ccc(Cl)cc1` [Ex. 37], for which, under setting [1], the “log P” value is recorded as 5.84*. On to `COc1nccnc1-n1nc(C(F)(F)F)c(-c2cc(Cl)cc(C(F)(F)F)c2)c1N(Cc1ccc(Cl)cc1)Cc1ccc(Cl)cc1` [Ex. 38], for which the “log P” value under setting [1] is reported as 7.11*. With `COc1nccnc1-n1nc(C(F)(F)F)c(-c2cc(Cl)cc(C(F)(F)F)c2)c1NCc1ccc(Cl)cc1` [Ex. 39], the “log P” value under setting [1] is listed as 5.51*. On the same count and under the same terms, under `CCOc1nccnc1-n1nc(C(F)(F)F)c(-c2cc(Cl)cc(C(F)(F)F)c2)c1NCc1ccc(OC)cc1` [Ex. 40] stands 5.47*; under `COc1ccc(CN(Cc2ccc(OC)cc2)c2c(-c3cc(Cl)cc(C(F)(F)F)c3)c(C(F)(F)F)nn2-c2nccnc2OC)cc1` [Ex. 42], 6.25*. Turning to `Nc1c(-c2cc(Cl)cc(C(F)(F)F)c2)c(C(F)(F)F)nn1-c1nccnc1-n1cc(F)cn1` [Ex. 45], under setting [1], the “log P” value is 4.24*. Take `COc1nccnc1-n1nc(C(F)(F)F)c(-c2cc(C(F)(F)F)cc(Cl)n2)c1N` [Ex. 55]: the “log P” value under setting [1] is recorded as 4.54*. On to `Nc1c(-c2cc(Cl)cc(Cl)c2)c(C(F)(F)F)nn1-c1nccnc1Cl` [Ex. 56], for which the “log P” value under setting [1] is recorded as 4.16*.

`C#CCN(CC#C)c1c(-c2cc(Cl)cc(C(F)(F)F)c2)c(C(F)(F)F)nn1-c1nccnc1OC` [Ex. 105]: the “log P” value under setting [1] is 4.91*. Regarding `CNc1c(-c2cc(Cl)cc(C(F)(F)F)c2)c(C(F)(F)F)nn1-c1nccnc1OC` [Ex. 106], under setting [1], the “log P” value is 4.51*. For `COc1cc(-c2c(C(F)(F)F)nn(-c3nccnc3OC)c2N)cc(C(F)(F)F)c1OC(C)C` [Ex. 126], under setting [1], the “log P” value is 4.28*.

Consider `Nc1c(-c2cc(Cl)cc(C(F)(F)F)c2)c(C(F)(F)F)nn1-c1nccnc1Br` [Ex. 129], for which, under setting [1], the “log P” value is listed as 4.27*. As to `COc1nccnc1-n1nc(C(F)(F)F)c(-c2ccc(Cl)c(SC)c2Cl)c1N` [Ex. 165], under setting [1], the “log P” value is recorded as 4.14*. For the compound `COc1nccnc1-n1nc(C(F)(F)F)c(-c2cc(SCC(F)(F)F)c(Cl)cc2Cl)c1N` [Ex. 179], under setting [1], the “log P” value is 4.14*. Turning to `COc1nccnc1-n1nc(C(F)(F)F)c(-c2cc(Cl)c(Cl)c(SCC(F)(F)F)c2)c1N` [Ex. 180], the “log P” value under setting [1] is listed as 4.43*.
